From US20180327461A1, “COMPOSITIONS AND METHODS FOR CONTROL OF VECTOR-BORNE DISEASE” (STC.UNM, priority 2015, published 2018)

Assays:
[1] = test system: P. agglomerans; type: cell-based, Pantoea agglomerans
[2] = test system: X. fastidiosa strain Temecula; type: cell-based, Xylella fastidiosa

Compound	concentration killing P. agglomerans relative to concentration killing X. fastidiosa [1]	concentration that killed P. agglomerans [1] [µM]	concentration that killed X. fastidiosa [2] [µM]	toxicity to X. fastidiosa compared with P. agglomerans [2]
CC[C@H](C)[C@H](NC(=O)CN)C(=O)NCC(=O)N[C@@H](C)C(=O)N[C@H](C(=O)N[C@@H](CC(C)C)C(=O)N[C@@H](CCCCN)C(=O)N[C@H](C(=O)N[C@@H](CC(C)C)C(=O)N[C@H](C(=O)N[C@H](C(=O)NCC(=O)N[C@@H](CC(C)C)C(=O)N1CCC[C@H]1C(=O)N[C@@H](C)C(=O)N[C@@H](CC(C)C)C(=O)N[C@H](C(=O)N[C@@H](CO)C(=O)N[C@@H](Cc1c[nH]c2ccccc12)C(=O)N[C@H](C(=O)N[C@@H](CCCCN)C(=O)N[C@@H](CCCNC(=N)N)C(=O)N[C@@H](CCCCN)C(=O)N[C@@H](CCCNC(=N)N)C(=O)N[C@@H](CCC(N)=O)C(=O)N[C@@H](CCC(N)=O)C(N)=O)[C@@H](C)CC)[C@@H](C)CC)[C@@H](C)O)[C@@H](C)O)C(C)C)C(C)C [melittin, Melittin]	five times higher	25	5	more toxic to X. fastidiosa than P. agglomerans
scorpine-like molecule [SLM]	–	> 75	25	more toxic to X. fastidiosa than P. agglomerans
